These results are taken from patent US7989435B2, “Phytic citrate compounds and process for preparing the same” (IP-6 Research, Inc., priority 2005, dated 2011).

Where “and” joins values, the source holds several entries; their conditions need not be identical. Identical values can stand only once. Like-named read-outs stand apart in the source and are kept apart here. Where only a bound is given, the exact number is not on record here.

A short description of data set [1]: Comparison of chelating effects, divalent cation electrode and ion analyzer. Also on record: unit not given here. It is filed as binding. On the procedure:
The chelating effects of the various chelators were measured by the conventional method known to an artisan in the art. The concentration of the ions chelated by the chelator was determined using a divalent cation electrode (e.g., Model 93-32, made by Orion Research Incorporated) and an ion analyzer (e.g., Model EA 920, made by Orion Research Incorporated).

Data set [2] can be described thus: Biodegradability, 301 A DOC Die-Away Test (OECD Guidelines). The method, then:
The biodegradability of phytic citrate was evaluated according to the method of “301 A DOC Die-Away Test” (1993), OECDGuidelines for Testing of Chemicals.

Data set [3] in a line: Re-dissolution rate of Fe^2+, FIG. 2. To be noted: in brain tissues, compared with phytic acid and EDTA.
The conditions of data set [4]: at 66 grams/liter; cited from earlier work.
Where [5] appears, read: 7 days, test suspension / reference flask.
Setting [6] is: 14 days, test suspension / reference flask.

As for `O=C(O)[C@H](O)[C@@H](O)[C@H](O)[C@H](O)CO` [Gluconic acid], the “Ca^2+ (conc. of ions chelated)” value in data set [1] is reported as 1.20.
On to phytic hexa-citrate [Phytic citrate], for which the “Degradation (%) in days” value was less than 10% in data set [2] (7 days, abiotic sterile control); less than 10% in data set [2] (7 days, absorption control); >90 (98.0) % and >90 (97.6) % and >90 (99.4) % in data set [2] (setting [5]); >90 (99.5) % in data set [2] (14 days (mean of test suspension flasks 1-3)); less than 10% in data set [2] (14 days, abiotic sterile control); less than 10% in data set [2] (14 days, absorption control). Further, the “Degradation (%) in days” value in data set [2] (setting [6]) was >90 (98.6) % and >90 (100) %. In addition, in data set [2] (results of Table 3), the “Biodegradability (conclusion in words)” value is given as “readily biodegradable”. For the same compound, the “Re-dissolution rate of Fe^2+” value in data set [3] was “superior redissolution capability to phytic acid and EDTA”. Moreover, the “Ca^2+ (conc. of ions chelated)” value in data set [1] is 12.24.
On to `O=C(O)CN(CCN(CC(=O)O)CC(=O)O)CC(=O)O` [EDTA, ethylenediaminetetraacetic acid], for which, in data set [1], the “Ca^2+ (conc. of ions chelated)” value is reported as 10.70.
Still for that read-out and setting: the result for `CC(O)C(=O)O` (stereo not drawn) [Lactic acid] reads 1.07.
`Nc1ccccc1` [Aniline Reference, Aniline, reference compound]: the results for the “Degradation (%) in days” value in data set [2] (setting [5]) and in data set [2] (setting [6]) were >90 (100) % and >90 (99.7) %, respectively.
Polyphosphoric acid: the “Ca^2+ (conc. of ions chelated)” value in data set [1] is 3.0.
Still for that read-out and setting: the same measure for `O=C(O)CC(O)(CC(=O)O)C(=O)O` [Citric acid]: 3.50.
On to `O=P(O)(O)O[C@H]1[C@H](OP(=O)(O)O)[C@@H](OP(=O)(O)O)[C@H](OP(=O)(O)O)[C@@H](OP(=O)(O)O)[C@H]1OP(=O)(O)O` [Phytic acid], for which the “Ca^2+ (conc. of ions chelated)” value is 9.73 in data set [1] (pH 3), 10.55 in data set [1] (pH 5) and 10.57 in data set [1] (pH 7). The “pH of aqueous solution” value in data set [4] was 0.9.
